Laboratory results reported in the C3SDB collision cross section collection.
Values joined by “and” are separate entries in the source; they are usually repeats but may differ in a detail not shown here. Identical values can stand only once.

Columns and labels:
[1] = instrument: DT, single field
[2] = instrument: DT, single field, calibrated with Agilent tune mix (Agilent)
[3] = instrument: DT, stepped-field
[4] = instrument: TW, calibrated with phosphatidylcholines (ESI+) and phosphatidylethanolamines (ESI-), doubly charged cardiolipins calibrated with poly-DL-…

CCCCCCCCCCCCC=CC[C@@H](O)[C@H](COP(=O)([O-])OCC[N+](C)(C)C)NC(=O)CCCCCCCCCCCCCCCCCCCCC [SM(40:1)]
collision cross section (N2) ([1]; [M+H]+): 299.29 Å²
collision cross section (N2) ([2]; [M+HCOO]-): 297.5 Å²
collision cross section (N2) ([2]; [M+H]+): 300.7 Å²
collision cross section (N2) ([2]; [M+Na]+): 300.5 Å²
collision cross section (N2) ([3]; [M+Na]+): 303.9 Å²

CCCCCCCC/C=C\CCCCCCCC(=O)OCC(COP(=O)(O)OCCN)OC(=O)CCCCCCC/C=C\CCCCCCCC (stereo not drawn) [PE(36:2)]
collision cross section (N2) ([4]; [M+H]+): 276.82 Å²
collision cross section (N2) ([4]; [M-H]-): 269.17 Å²

CCCCCC/C=C\CCCCCCCC(=O)OC[C@H](COP(=O)(O)OC[C@@H](O)COC(=O)CCCCCCCCCCCCCCC)OC(=O)CCCCCCCC1CC1CCCCCCCCCC (stereo partly drawn) [AcylPG(53:2)]
collision cross section (N2) ([4]; [M-H]-): 333.78 Å²

CCCCCCCCCCCCCCCC(=O)OCC(COP(=O)(O)OCC(O)CO)OC(=O)CCCCCCCCCCCCC (stereo not drawn) [PG(30:0)]
collision cross section (N2) ([4]; [M+Na]+): 272.75 Å²
collision cross section (N2) ([4]; [M-H]-): 258.02 Å²

CCCCCC/C=C\CCCCCCCC(=O)OCC(COP(=O)(O)OCCN)OC(=O)CCCCCCCCCCCCC (stereo not drawn) [PE(30:1)]
collision cross section (N2) ([4]; [M+H]+): 260.6 Å²
collision cross section (N2) ([4]; [M-H]-): 248.78 Å²

CCCCCCCCC1CC1CCCCCCCC(=O)O[C@H](CO)COP(=O)([O-])OCC[NH3+] (stereo partly drawn) [LPE(0:0/19:1)]
collision cross section (N2) ([4]; [M+H]+): 221.32 Å²
collision cross section (N2) ([4]; [M+Na]+): 226.07 Å²
collision cross section (N2) ([4]; [M-H]-): 214.39 Å²

CCCCCC/C=C\CCCCCCCC(=O)OCC(COP(=O)(O)OCC(O)COP(=O)(O)OCC(COC(=O)CCCCCCCC1CC1CCCCCCCC)OC(=O)CCCCCCC/C=C\CCCCCC)OC(=O)CCCCCCC/C=C\CCCCCCCC (stereo not drawn) [CL(69:4)]
collision cross section (N2) ([4]; [M-2H]2-): 409.28 Å²

CCCCC/C=C\C/C=C\CCCCCCCCCC(=O)O[C@H](COC(=O)CCCCCCCCCCCC)COP(=O)([O-])OCC[N+](C)(C)C [PC(33:2)]
collision cross section (N2) ([1]; [M+H]+): 279.23 Å²
collision cross section (N2) ([2]; [M+H]+): 279.8 Å²
collision cross section (N2) ([3]; [M+K]+): 291.5 Å²

CCCCCCCC/C=C\CCCCCCCC(=O)OC(COC(=O)CCCCCCCCCCCCCCCCC)COP(=O)(O)O (stereo not drawn) [PA(36:1)]
collision cross section (N2) ([4]; [M-H]-): 261.81 Å²

CCCCCCCCCCCCCCCC(=O)OCC(COP(=O)(O)OCCN)OC(=O)CCCCCCCC1CC1CCCCCC (stereo not drawn) [PE(33:1)]
collision cross section (N2) ([4]; [M+H]+): 273.6 Å²
collision cross section (N2) ([4]; [M-H]-): 259.91 Å²

CCCCCC/C=C\CCCCCCCC(=O)OCC(COP(=O)(O)OCC(O)CO)OC(=O)CCCCCCCCCCCCCCC (stereo not drawn) [PG(32:1)]
collision cross section (N2) ([4]; [M+Na]+): 275.15 Å²
collision cross section (N2) ([4]; [M-H]-): 262.68 Å²

CCCCC/C=C\C/C=C\C/C=C\CCCCC(=O)O[C@H](COC(=O)CCCCCCCCCCC)COC(=O)CCCCCCCCCCC/C=C\C/C=C\CCCCC [TG(52:5)]
collision cross section (N2) ([1]; [M+Na]+): 312.33 Å² and 314.31 Å²
collision cross section (N2) ([2]; [M+NH4]+): 314.7 Å²

CCCCC/C=C\CCCCCCCC(=O)OC[C@H](COC(=O)CCCCCCC/C=C\CCCCCCCC)OC(=O)CCCCCCC/C=C\CCCCCCCC [TG(51:3)]
collision cross section (N2) ([1]; [M+NH4]+): 314.4 Å² and 316.33 Å² and 320.05 Å²
collision cross section (N2) ([1]; [M+Na]+): 313.29 Å² and 315.37 Å²
collision cross section (N2) ([2]; [M+NH4]+): 314.6 Å²

CCCCCCCC/C=C\CCCCCCCC(=O)OC(COC(=O)CCCCCCCCCCCCCCC)COP(=O)(O)OCC(O)COP(=O)(O)OCC(COC(=O)CCCCCCCC1CC1CCCCCCCC)OC(=O)CCCCCCCCCCCCCCC (stereo not drawn) [CL(69:2)]
collision cross section (N2) ([4]; [M-2H]2-): 408.93 Å²

CCCCCC/C=C\CCCCCCCC(=O)OC[C@H](COP(=O)(O)OC[C@@H](O)COC(=O)CCCCCCCCCCCCCCC)OC(=O)CCCCCCCC1CC1CCCCCC (stereo partly drawn) [AcylPG(49:2)]
collision cross section (N2) ([4]; [M-H]-): 318.87 Å²

CCCCCC/C=C\CCCCCCCC(=O)OCC(COP(=O)(O)OCC(O)CO)OC(=O)CCCCCCC/C=C\CCCCCCCC (stereo not drawn) [PG(34:2)]
collision cross section (N2) ([4]; [M+Na]+): 278.38 Å²
collision cross section (N2) ([4]; [M-H]-): 267.97 Å²

CCCCCCCCC/C=C\CCCCCCCC(=O)OC[C@@H](COC(=O)CCCCCCCCCCC)OC(=O)CCCCCCC/C=C\CCCCCCCCC [TG(50:2)]
collision cross section (N2) ([1]; [M+Na]+): 313.04 Å² and 315.16 Å²
collision cross section (N2) ([2]; [M+NH4]+): 315.8 Å²

CCCCC/C=C\C/C=C\CCCCCCCCCCCC(=O)OC[C@@H](COC(=O)CCCCCCCCCCC)OC(=O)CCCCCCCCCCC/C=C\C/C=C\CCCCC [TG(56:4)]
collision cross section (N2) ([1]; [M+NH4]+): 327.84 Å² and 330.13 Å² and 333.95 Å²
collision cross section (N2) ([1]; [M+Na]+): 329.41 Å²
collision cross section (N2) ([2]; [M+NH4]+): 330.8 Å²

CCCCCC/C=C\CCCCCCCC(=O)OC(COC(=O)CCCCCCCCCCCCCCC)COP(=O)(O)OCC(O)COP(=O)(O)OCC(COC(=O)CCCCCCCCCCCCCCC)OC(=O)CCCCCCC/C=C\CCCCCC (stereo not drawn) [CL(64:2)]
collision cross section (N2) ([4]; [M+2K]2+): 422.9 Å²
collision cross section (N2) ([4]; [M-2H]2-): 397 Å²

CCCCCC/C=C\CCCCCCCC(=O)OC[C@H](COP(=O)(O)OC[C@@H](O)COC(=O)CCCCCCCCCCCCCCC)OC(=O)CCCCCCCCCCCCC [AcylPG(46:1)]
collision cross section (N2) ([4]; [M-H]-): 310.71 Å²

CCCC/C=C\C/C=C\CCCCCCCC(=O)O[C@@H](COC(=O)CCCCCCC/C=C\C/C=C\CCCCC)COC(=O)CCCCCCCCCCCCCCC [TG(51:4)]
collision cross section (N2) ([1]; [M+NH4]+): 312.43 Å² and 314.2 Å² and 317.35 Å²
collision cross section (N2) ([1]; [M+Na]+): 313.17 Å²
collision cross section (N2) ([2]; [M+NH4]+): 312.1 Å²

CCCCCC/C=C\CCCCCCCC(=O)OC[C@H](COP(=O)(O)OCCNC(=O)CCCCCCCCCCCCCCC)OC(=O)CCCCCCCCCCCCCC [AcylPE(47:1)]
collision cross section (N2) ([4]; [M+Na]+): 321.4 Å²
collision cross section (N2) ([4]; [M-H]-): 313.42 Å²

CCCCCC/C=C\CCCCCCCC(=O)OCC(COP(=O)(O)OCC(O)COP(=O)(O)OCC(COC(=O)CCCCCCC/C=C/CCCCCCCC)OC(=O)CCCCCCC/C=C\CCCCCC)OC(=O)CCCCCCC/C=C\CCCCCCCC (stereo not drawn) [CL(68:4)]
collision cross section (N2) ([4]; [M-2H]2-): 406.81 Å²

CCCCCC/C=C\CCCCCCCC(=O)OC[C@H](CO)OC(=O)CCCCCCCCCCCCCCCCC [DG(34:1)]
collision cross section (N2) ([1]; [M+NH4]+): 260.44 Å² and 262.5 Å²
collision cross section (N2) ([2]; [M+NH4]+): 261.1 Å²

CCCCCC/C=C\CCCCCCCC(=O)OCC(COP(=O)(O)OCCN)OC(=O)CCCCCCC/C=C\CCCCCCCC (stereo not drawn) [PE(34:2)]
collision cross section (N2) ([4]; [M+H]+): 271.97 Å²
collision cross section (N2) ([4]; [M-H]-): 261.72 Å²

CCCCCC/C=C\CCCCCCCC(=O)OC[C@H](COP(=O)(O)OCCNC(=O)CCCCCCCCCCCCCCC)OC(=O)CCCCCCC/C=C\CCCCCCCCCC [AcylPE(52:2)]
collision cross section (N2) ([4]; [M-H]-): 328.83 Å²

CCCCCC/C=C\CCCCCCCC(=O)OC[C@H](O)COP(=O)(O)OC[C@@H](COC(=O)CCCCCCC/C=C\CCCCCC)OC(=O)CCCCCCCC1CC1CCCCCCCC (stereo partly drawn) [AcylPG(51:3)]
collision cross section (N2) ([4]; [M-H]-): 325 Å²

CCCCC/C=C\C/C=C\C/C=C\CCCCCCCCC(=O)OC[C@@H](COC(=O)CCCCCCCCCCCCC)OC(=O)CCCCCCCCCCCCC [TG(50:3)]
collision cross section (N2) ([1]; [M+NH4]+): 311.73 Å² and 314.12 Å²
collision cross section (N2) ([1]; [M+Na]+): 310.81 Å² and 313.16 Å²
collision cross section (N2) ([2]; [M+NH4]+): 313 Å²

CCCCCCC1CC1CCCCCCCC(=O)OC[C@@H](O)COP(=O)(O)OCC(O)CO (stereo partly drawn) [LPG(17:1)]
collision cross section (N2) ([4]; [M-H]-): 214.26 Å²

CCCCCCCCCCCCCCC(=O)O[C@H](CO)COP(=O)(O)OCC(O)CO (stereo partly drawn) [LPG(15:0)]
collision cross section (N2) ([4]; [M-H]-): 208.96 Å²

CCCCCCCCC1CC1CCCCCCCC(=O)OC[C@@H](O)COP(=O)(O)OCC(O)CO (stereo partly drawn) [LPG(19:1)]
collision cross section (N2) ([4]; [M-H]-): 221.18 Å²

CCCCCC/C=C\CCCCCCCC(=O)OC[C@H](COP(=O)(O)OCCNC(=O)CCCCCCCCCCCCCCC)OC(=O)CCCCCCCCCCCCC [AcylPE(46:1)]
collision cross section (N2) ([4]; [M-H]-): 310.12 Å²

CCCCCCCCCCCCCCCC(=O)OCC(COP(=O)(O)OCCN)OC(=O)CCCCCCCCCCCCCC (stereo not drawn) [PE(31:0)]
collision cross section (N2) ([4]; [M+H]+): 269.25 Å²
collision cross section (N2) ([4]; [M-H]-): 253.95 Å²

CCCCC/C=C\C/C=C\CCCCCCCCCC(=O)OC[C@@H](COC(=O)CCCCCCCCCCC)OC(=O)CCCCCCCCCCC [TG(44:2)]
collision cross section (N2) ([1]; [M+NH4]+): 294.01 Å² and 295.78 Å² and 296.41 Å²
collision cross section (N2) ([1]; [M+Na]+): 292.91 Å² and 295.34 Å²
collision cross section (N2) ([2]; [M+NH4]+): 292.9 Å²

CCCCCCCCCCCCC=CC[C@@H](O)[C@H](COP(=O)([O-])OCC[N+](C)(C)C)NC(=O)CCCCCCCCCCCCCCCCCCCCCCCC [SM(43:1)]
collision cross section (N2) ([1]; [M+H]+): 308.58 Å²
collision cross section (N2) ([3]; [M+Na]+): 312.5 Å²

CCCCCCCCCCCCCCCC(=O)OC[C@@H](COC(=O)CCCCCCCCCCC)OC(=O)CCCCCCCCCCC [TG(40:0)]
collision cross section (N2) ([1]; [M+Na]+): 282.67 Å² and 283.77 Å²
collision cross section (N2) ([2]; [M+NH4]+): 285 Å²

CCCCC/C=C\CCCCCCCC(=O)O[C@H](COC(=O)CCCCCCC/C=C\CCCCCC)COP(=O)([O-])OCC[N+](C)(C)C [PC(31:2)]
collision cross section (N2) ([1]; [M+H]+): 272.28 Å²
collision cross section (N2) ([3]; [M+K]+): 283.6 Å²

CCCCCCCC/C=C\CCCCCCCC(=O)OC[C@@H](COC(=O)CCCCCCCCCCC)OC(=O)CCCCCCC/C=C\CCCCCCCC [TG(48:2)]
collision cross section (N2) ([1]; [M+NH4]+): 307.53 Å² and 309.7 Å² and 313.52 Å²
collision cross section (N2) ([1]; [M+Na]+): 306.66 Å² and 308.69 Å²
collision cross section (N2) ([2]; [M+NH4]+): 308.3 Å²

CCCC/C=C\C/C=C\CCCCCCCC(=O)OC[C@H](COC(=O)CCCCCCCCCCCCCCCCCCCCC)OC(=O)CCCCCCCCC/C=C\CCCCCCCC [TG(59:3)]
collision cross section (N2) ([1]; [M+NH4]+): 342.22 Å² and 344.48 Å²
collision cross section (N2) ([2]; [M+NH4]+): 337.6 Å²

CC/C=C\C/C=C\C/C=C\C/C=C\C/C=C\CCCC(=O)O[C@H](COC(=O)CCCCCCCCCCCCCCC)COC(=O)CCCCCCCCCCCCCCCCCCCCC [TG(58:5)]
collision cross section (N2) ([1]; [M+NH4]+): 334.35 Å²
collision cross section (N2) ([2]; [M+NH4]+): 334.6 Å²
